Data published in ChEMBL document CHEMBL5352439, “Design, synthesis, biological evaluation and molecular docking study of novel urea-based benzamide derivatives as potent poly(ADP-ribose) polymerase-1 (PARP-1) inhibitors” (Eur J Med Chem, 2022).

Tests used:
HCT-116 [1] = experiment: Induction of apoptosis in human HCT-116 cells assessed as viable cells at 10 uM incubated for 48 hrs by Annexin-V and PI staining based flow cytometry analysis (reference value: 98.50%); format: functional; details: read-out: Activity
HCT-116 [2] = experiment: Induction of apoptosis in human HCT-116 cells assessed as early apoptotic cells at 10 uM incubated for 48 hrs by Annexin-V and PI staining based flow cytometry analysis (reference value: 1.26%); format: functional
HCT-116 [3] = experiment: Induction of apoptosis in human HCT-116 cells assessed as late apoptotic cells at 10 uM incubated for 48 hrs by Annexin-V and PI staining based flow cytometry analysis (reference value: 0.06%); format: functional
MDA-MB-231 [4] = experiment: Antiproliferative activity against human MDA-MB-231 cells assessed as inhibition of cell growth at 20 uM incubated for 48 hrs by MTT assay; format: functional
HCT-116 [5] = experiment: Induction of apoptosis in human HCT-116 cells assessed as necrotic cells at 10 uM incubated for 48 hrs by Annexin-V and PI staining based flow cytometry analysis (reference value: 0.08%); format: functional
HCT-116 [6] = experiment: Induction of apoptosis in human HCT-116 cells assessed as necrotic cells at 5 uM incubated for 48 hrs by Annexin-V and PI staining based flow cytometry analysis (reference value: 0.08%); format: functional
HCT-116 [7] = experiment: Inhibition of cell migration in human HCT-116 cells at 20 uM incubated for 48 hrs by wound healing assay (reference value: 42.8 %); format: functional
[8] = target: Poly [ADP-ribose] polymerase 1 (Homo sapiens, UniProt P09874); experiment: Inhibition of PARP1 (unknown origin) by ELISA
Chain of Poly [ADP-ribose] polymerase 1 (P09874 whole entry): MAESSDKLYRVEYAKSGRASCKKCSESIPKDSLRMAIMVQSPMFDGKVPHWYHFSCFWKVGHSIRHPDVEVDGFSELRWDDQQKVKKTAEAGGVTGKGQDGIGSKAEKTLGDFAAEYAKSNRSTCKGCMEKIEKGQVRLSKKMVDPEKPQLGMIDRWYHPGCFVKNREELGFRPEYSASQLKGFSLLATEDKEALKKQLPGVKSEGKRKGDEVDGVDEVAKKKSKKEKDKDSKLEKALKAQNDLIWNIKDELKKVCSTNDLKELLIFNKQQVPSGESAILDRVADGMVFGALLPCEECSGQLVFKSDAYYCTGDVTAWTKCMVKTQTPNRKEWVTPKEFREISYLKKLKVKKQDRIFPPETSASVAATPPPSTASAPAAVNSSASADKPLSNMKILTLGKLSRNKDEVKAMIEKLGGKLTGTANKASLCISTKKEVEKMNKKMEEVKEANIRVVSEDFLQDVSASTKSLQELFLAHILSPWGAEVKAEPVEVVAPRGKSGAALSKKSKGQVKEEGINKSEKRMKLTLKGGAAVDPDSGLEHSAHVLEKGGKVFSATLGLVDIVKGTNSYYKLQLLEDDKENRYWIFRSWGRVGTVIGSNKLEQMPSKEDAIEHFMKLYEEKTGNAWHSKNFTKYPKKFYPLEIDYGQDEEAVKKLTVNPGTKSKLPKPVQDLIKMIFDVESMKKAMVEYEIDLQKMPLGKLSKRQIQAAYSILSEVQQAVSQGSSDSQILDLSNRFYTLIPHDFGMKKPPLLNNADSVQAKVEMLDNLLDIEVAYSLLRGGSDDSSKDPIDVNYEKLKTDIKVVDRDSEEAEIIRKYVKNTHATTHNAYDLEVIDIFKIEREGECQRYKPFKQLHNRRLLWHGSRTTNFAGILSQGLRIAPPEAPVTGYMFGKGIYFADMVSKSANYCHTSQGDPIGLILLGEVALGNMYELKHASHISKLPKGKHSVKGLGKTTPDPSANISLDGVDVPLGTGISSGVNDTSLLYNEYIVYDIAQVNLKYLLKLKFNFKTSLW

MDA-MB-231 [9] = experiment: Antiproliferative activity against human MDA-MB-231 cells assessed as inhibition of cell growth incubated for 48 hrs by MTT assay; format: functional, cell-based; details: MDA-MB-231, 48 h
HCT-116 [10] = experiment: Potency index, ratio of olaparib IC50 to test compound IC50 for antiproliferative activity against human HCT-116 cells; format: functional
HCT-116 [11] = experiment: Inhibition of cell migration in human HCT-116 cells at 10 uM incubated for 48 hrs by wound healing assay (reference value: 42.8 %); format: functional
HCT-116 [12] = experiment: Inhibition of colony formation in human HCT-116 cells at 7.5 uM measured every 3 days for 14 days by crystal violet staining based assay; format: functional; details: HCT-116, 336 h, time 14 day
HCT-116 [13] = experiment: Inhibition of colony formation in human HCT-116 cells at 10 uM measured every 3 days for 14 days by crystal violet staining based assay; format: functional; details: HCT-116, 336 h, time 14 day
L02 = experiment: Antiproliferative activity against human L02 cells assessed as inhibition of cell growth […] incubated for 48 hrs by MTT assay; format: functional, cell-based; details: L02, 48 h
HCT-116 [14] = experiment: Inhibition of cell migration in human HCT-116 cells at 10 uM incubated for 24 hrs by wound healing assay (reference value: 32.0 %); format: functional
HCT-116 [15] = experiment: Induction of apoptosis in human HCT-116 cells assessed as viable cells at 5 uM incubated for 48 hrs by Annexin-V and PI staining based flow cytometry analysis (reference value: 98.50%); format: functional; details: read-out: Activity
HCT-116 [16] = experiment: Induction of apoptosis in human HCT-116 cells assessed as early apoptotic cells at 20 uM incubated for 48 hrs by Annexin-V and PI staining based flow cytometry analysis (reference value: 1.26%); format: functional
HeLa [17] = experiment: Antiproliferative activity against human HeLa cells assessed as inhibition of cell growth incubated for 48 hrs by MTT assay; format: functional, cell-based
A549 [18] = experiment: Antiproliferative activity against human A549 cells assessed as inhibition of cell growth at 20 uM incubated for 48 hrs by MTT assay; format: functional
HCT-116 [19] = experiment: Induction of apoptosis in human HCT-116 cells assessed as late apoptotic cells at 20 uM incubated for 48 hrs by Annexin-V and PI staining based flow cytometry analysis (reference value: 0.06%); format: functional
HCT-116 [20] = experiment: Induction of cell cycle arrest in human HCT-116 cells assessed as accumulation of cells at G2/M phase at 10 to 40 uM incubated for 48 hrs by propidium iodide staining based flow cytometry analysis (reference value: 27.38 %); format: functional; details: dose 10-40 µM
HCT-116 [21] = experiment: Induction of cell cycle arrest in human HCT-116 cells assessed as decrease in cells at G0/G1 phase at 10 to 40 uM incubated for 48 hrs by propidium iodide staining based flow cytometry analysis (reference value: 63.67 %); format: functional; design: scale not given: the % may be the effect or the level left; details: dose 10-40 µM
A-375 [22] = experiment: Antiproliferative activity against human A-375 cells assessed as inhibition of cell growth at 20 uM incubated for 48 hrs by MTT assay; format: functional
HeLa [23] = experiment: Antiproliferative activity against human HeLa cells assessed as inhibition of cell growth at 20 uM incubated for 48 hrs by MTT assay; format: functional
HCT-116 [24] = experiment: Inhibition of cell migration in human HCT-116 cells at 20 uM incubated for 24 hrs by wound healing assay (reference value: 32.0 %); format: functional
A-375 [25] = experiment: Antiproliferative activity against human A-375 cells assessed as inhibition of cell growth incubated for 48 hrs by MTT assay; format: functional, cell-based; details: A-375, 48 h
HCT-116 [26] = experiment: Induction of apoptosis in human HCT-116 cells assessed as viable cells at 20 uM incubated for 48 hrs by Annexin-V and PI staining based flow cytometry analysis (reference value: 98.50%); format: functional; details: read-out: Activity
HCT-116 [27] = experiment: Induction of apoptosis in human HCT-116 cells assessed as necrotic cells at 20 uM incubated for 48 hrs by Annexin-V and PI staining based flow cytometry analysis (reference value: 0.08%); format: functional
HCT-116 [28] = experiment: Inhibition of colony formation in human HCT-116 cells measured every 3 days for 14 days by crystal violet staining based assay; format: functional, cell-based; details: dose 1.88-15 µM, time 14.0 day
HCT-116 [29] = experiment: Induction of apoptosis in human HCT-116 cells assessed as late apoptotic cells at 5 uM incubated for 48 hrs by Annexin-V and PI staining based flow cytometry analysis (reference value: 0.06%); format: functional
A549 [30] = experiment: Antiproliferative activity against human A549 cells assessed as inhibition of cell growth incubated for 48 hrs by MTT assay; format: functional, cell-based; details: A549, 48 h
HCT-116 [31] = experiment: Antiproliferative activity against human HCT-116 cells assessed as inhibition of cell growth at 20 uM incubated for 48 hrs by MTT assay; format: functional
HCT-116 [32] = experiment: Induction of apoptosis in human HCT-116 cells assessed as early apoptotic cells at 5 uM incubated for 48 hrs by Annexin-V and PI staining based flow cytometry analysis (reference value: 1.26%); format: functional

**Q.** With `NC(=O)c1ccccc1OCc1cccc(NC(=O)Nc2cccc(Br)c2)c1` as the compound, how does the viability at 10 µM (HCT-116 [1]) read?
**A.** 85%

**Q.** And the Activity (HCT-116 [2])?
**A.** 11.56%

**Q.** What about the Activity (HCT-116 [3]) of the same compound?
**A.** 2.44%

**Q.** And the inhibition at 20 µM (MDA-MB-231 [4])?
**A.** 78.8%

**Q.** And the Activity (HCT-116 [5])?
**A.** 0.95%

**Q.** What about the Activity (HCT-116 [6]) of the same compound?
**A.** 0.55%

**Q.** What about the inhibition at 20 µM (HCT-116 [7]) of the same compound?
**A.** 19.3%

**Q.** And the IC50 [8]?
**A.** 0.00606 µM

**Q.** What about the IC50 (MDA-MB-231 [9]) of the same compound?
**A.** 14.2 µM

**Q.** And the “Ratio IC50” value (HCT-116 [10])?
**A.** 8.93

**Q.** What about the inhibition at 10 µM (HCT-116 [11]) of the same compound?
**A.** 25.1%

**Q.** And the inhibition at 7.5 µM (HCT-116 [12])?
**A.** 100%

**Q.** What about the inhibition at 10 µM (HCT-116 [13]) of the same compound?
**A.** 100%

**Q.** What about the IC50 (L02) of the same compound?
**A.** 71.1 µM

**Q.** And the inhibition at 10 µM (HCT-116 [14])?
**A.** 23%

**Q.** And the viability at 5 µM (HCT-116 [15])?
**A.** 94.6%

**Q.** What about the Activity (HCT-116 [16]) of the same compound?
**A.** 40.51%

**Q.** And the IC50 (HeLa [17])?
**A.** 13.3 µM

**Q.** And the inhibition at 20 µM (A549 [18])?
**A.** 49.3%

**Q.** And the Activity (HCT-116 [19])?
**A.** 0.89%

**Q.** And the Activity (HCT-116 [20])?
**A.** 34.14%

**Q.** And the Activity (HCT-116 [21])?
**A.** 55.17%

**Q.** And the inhibition at 20 µM (A-375 [22])?
**A.** 80.8%

**Q.** What about the inhibition at 20 µM (HeLa [23]) of the same compound?
**A.** 71.2%

**Q.** What about the inhibition at 20 µM (HCT-116 [24]) of the same compound?
**A.** 12%

**Q.** And the IC50 (A-375 [25])?
**A.** 19.5 µM

**Q.** What about the viability at 20 µM (HCT-116 [26]) of the same compound?
**A.** 58.5%

**Q.** What about the Activity (HCT-116 [27]) of the same compound?
**A.** 0.15%

**Q.** And the inhibition (HCT-116 [28])?
**A.** Dose-Dependent Effect

**Q.** What about the Activity (HCT-116 [29]) of the same compound?
**A.** 0.77%

**Q.** What about the IC50 (A549 [30]) of the same compound?
**A.** 26.4 µM

**Q.** And the inhibition at 20 µM (HCT-116 [31])?
**A.** 90.7%

**Q.** And the Activity (HCT-116 [32])?
**A.** 4.09%
